Measurements taken from patent publication US20250179017A1 (GUANGDONG NEWOPP BIOPHARMACEUTICALS CO., LTD., priority 2022, published 2025).

Biological target: T1, human EP2 (PTGER2) (Homo sapiens, UniProt P43116)
T1 construct: Cayman Chemical (Human EP2 Reporter Assay Kit)
Assay: EP2 antagonist assay (HEK-293 CNG membrane potential cAMP assay / 293T SEAP reporter assay, PGE2-stimulated)
Format: cell-based
Conditions: EP2 antagonist activity; concentration for 50% inhibition of signal compared to DMSO
How it was run: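 Two formats. In a CRE-SEAP reporter assay, reverse-transfected 293T cells received compound with PGE2 (13 nM final) for 6-8 h, then luminescence was read. In the ACTOne CNG format, HEK-293 cells were preincubated with compound for 15 min at RT, stimulated with 5 nM PGE2 for 30 min, and read by membrane-potential dye fluorescence. IC50 was taken versus DMSO.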

T1 sequence (P43116 whole entry): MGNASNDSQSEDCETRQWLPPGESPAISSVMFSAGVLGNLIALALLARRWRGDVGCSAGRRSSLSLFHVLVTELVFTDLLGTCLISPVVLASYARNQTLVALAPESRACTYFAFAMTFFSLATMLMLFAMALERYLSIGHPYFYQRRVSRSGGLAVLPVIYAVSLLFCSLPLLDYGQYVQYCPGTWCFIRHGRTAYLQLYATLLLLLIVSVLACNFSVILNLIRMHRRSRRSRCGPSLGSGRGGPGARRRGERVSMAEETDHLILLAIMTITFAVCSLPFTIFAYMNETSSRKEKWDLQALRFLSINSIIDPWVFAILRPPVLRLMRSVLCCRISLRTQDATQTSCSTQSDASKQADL

| IC50 [nM] | Structure (SMILES) |
| --- | --- |
| < 100 | O=C(O)c1ccc(CNC(=O)c2cc(-c3ccccc3)cc3ccn(Cc4cccc(C(F)(F)F)c4)c23)cc1 [Example 122, 4-((5-phenyl-1-(3-(trifluoromethyl)benzyl)-1H-indole-7-carboxamido)methyl)benzoic acid] |
| 100 to 1000 | NC(=O)c1cccc(-c2cc(C(=O)NC3CC4(C3)CC(C(=O)O)C4)c3c(Sc4ccc(C(F)(F)F)cc4)c[nH]c3c2)c1 (racemic) [Example 115, (±) 6-(6-(3-carbamoylphenyl)-3-((4-(trifluoromethyl)phenyl)thio)-1H-indole-4-carboxamido)spiro[3.3]heptane-2-carboxylic acid] |
| < 100 | O=C(O)c1ccc(CNC(=O)c2cc(-c3cc(F)cc(F)c3)cc3ccn(Cc4ccc(-c5ccc(F)cc5)cc4)c23)cc1 [Example 210, 4-((5-(3,5-difluorophenyl)-1-((4′-fluoro-[1,1′-biphenyl]-4-yl)methyl)-1H-indole-7-carboxamido)methyl)benzoic acid] |
| 100 to 1000 | CNC(=O)c1cccc(-c2cc(C(=O)NCc3ccc(C(=O)O)cc3)c3c(ccn3Cc3ccc(C(F)(F)F)cc3)c2)c1 [Example 116, 4-((5-(3-(methylcarbamoyl)phenyl)-1-(4-(trifluoromethyl)benzyl)-1H-indole-7-carboxamido)methyl)benzoic acid] |
| 100 to 1000 | O=C(O)c1ccc(C2(NC(=O)c3cc(-c4ccccc4)cc4cnn(Cc5cccc(C(F)(F)F)c5)c34)CC2)cc1 [Example 140, 4-(1-(5-phenyl-1-(3-(trifluoromethyl)benzyl)-1H-indazole-7-carboxamido)cyclopropyl)benzoic acid] |
| < 100 | O=C(O)c1ccc(CNC(=O)c2cc(-c3ccccc3)cc3ccn(Cc4ccc5ccccc5c4)c23)cc1 [Example 159, 4-((1-(naphthalen-2-ylmethyl)-5-phenyl-1H-indole-7-carboxamido)methyl)benzoic acid] |
| ≥ 1000 | C[C@@H](NC(=O)c1ccc(-c2ccc(F)cc2)c2ccn(Cc3ccc(C(F)(F)F)cc3)c12)c1ccc(C(=O)O)cc1 [Example 35, (R)-4-(1-(4-(4-fluorophenyl)-1-(4-(trifluoromethyl)benzyl)-1H-indole-7-carboxamido)ethyl)benzoic acid] |
| ≥ 1000 | O=C(O)c1ccc(C2(NC(=O)c3ccc(-c4ccc(F)cc4)c4ccn(Cc5ccc(C(F)(F)F)cc5)c34)CC2)cc1 [Example 42, 4-(1-(4-(4-fluorophenyl)-1-(4-(trifluoromethyl)benzyl)-1H-indole-7-carboxamido)cyclopropyl)-benzoic acid] |
| ≥ 1000 | C[C@@H](NC(=O)c1cc(-c2cccc(C#N)c2)cc2ccn(Cc3ccc(C(F)(F)F)cc3)c12)c1ccc(C(=O)O)cc1 [Example 12, (R)-4-(1-(5-(3-cyanophenyl)-1-(4-(trifluoromethyl)benzyl)-1H-indole-7-carboxamido)ethyl) benzoic acid] |
| ≥ 1000 | O=C(O)c1ccc(CNC(=O)c2ccc(N3CCOCC3)c3ccn(Cc4ccc(C(F)(F)F)cc4)c23)cc1 [Example 58, 4-((4-morpholino-1-(4-(trifluoromethyl)benzyl)-1H-indole-7-carboxamido)methyl)benzoic acid] |
| < 100 | O=C(O)c1ccc(CNC(=O)c2cc(-c3ccccc3)cc3ccn(Cc4cccc(-c5ccccc5)c4)c23)cc1 [Example 145, ((1-([1,1′-biphenyl]-3-ylmethyl)-5-phenyl-1H-indole-7-carboxamido)methyl)benzoic acid] |
| 100 to 1000 | N#Cc1cccc(-c2ccc(C(=O)NCc3ccc(C(=O)O)cc3)c3c2ccn3Cc2ccc(C(F)(F)F)cc2)c1 [Example 22, 4-((4-(3-cyanophenyl)-1-(4-(trifluoromethyl)benzyl)-1H-indole-7-carboxamido)methyl)benzoic acid] |
| < 100 | N#Cc1cccc(-c2cc(C(=O)NC3(c4ccc(C(=O)O)cc4)CC3)c3c(ccn3Cc3ccc(C(F)(F)F)cc3)c2)c1 [Example 17, 4-(1-(5-(3-cyanophenyl)-1-(4-(trifluoromethyl)benzyl)-1H-indole-7-carboxamido)cyclopropyl)benzoic acid] |
| < 100 | O=C(O)c1ccc(CNC(=O)c2cc(-c3cc(F)cc(F)c3)cc3cnn(Cc4ccc(-c5ccccc5)cc4)c23)cc1 [Example 192, 4-((1-([1,1′-biphenyl]-4-ylmethyl)-5-(3,5-difluorophenyl)-1H-indazole-7-carboxamido)methyl)benzoic acid] |
| < 100 | O=C(O)c1ccc(CNC(=O)c2cc(-c3ccc(F)c(F)c3)cc3ccn(Cc4ccc(-c5ccc(F)cc5)cc4)c23)cc1 [Example 211, 4-((5-(3,4-difluorophenyl)-1-((4′-fluoro-[1,1′-biphenyl]-4-yl)methyl)-1H-indole-7-carboxamido)methyl)benzoic acid] |
| < 100 | O=C(O)c1ccc(CNC(=O)c2cc(-c3ccccc3)cc3ccn(Cc4cccc(Cl)c4)c23)cc1 [Example 105, 4-((1-(3-chlorobenzyl)-5-phenyl-1H-indole-7-carboxamido)methyl)benzoic acid] |
| ≥ 1000 | O=C(O)c1ccc(CNC(=O)c2ccc(-c3cc(F)cc(F)c3)c3ccn(Cc4ccc(C(F)(F)F)cc4)c23)cc1 [Example 27, 4-((4-(3,5-difluorophenyl)-1-(4-(trifluoromethyl)benzyl)-1H-indole-7-carboxamido)methyl) benzoic acid] |
| < 100 | C[C@H](NC(=O)c1cc(-c2ccccc2)cc2cnn(Cc3ccc(-c4ccc(F)cc4)cc3)c12)c1ccc(C(=O)O)cc1 [Example 202, (S)-4-(1-(1-((4′-fluoro-[1,1′-biphenyl]-4-yl)methyl)-5-phenyl-1H-indazole-7-carboxamido)ethyl)benzoic acid] |
| 100 to 1000 | O=C(O)c1ccc(CNC(=O)c2cc(-c3cc(Cl)cc(Cl)c3)cc3ccn(Cc4ccc(C(F)(F)F)cc4)c23)cc1 [Example 88, 4-((5-(3,5-dichlorophenyl)-1-(4-(trifluoromethyl)benzyl)-1H-indole-7-carboxamido)methyl)benzoic acid] |
| < 100 | C[C@H](NC(=O)c1cc(-c2cc(F)cc(F)c2)cc2ccn(Cc3ccc4ccccc4c3)c12)c1ccc(C(=O)O)cc1 [Example 164, (S)-4-(1-(5-(3,5-difluorophenyl)-1-(naphthalen-2-ylmethyl)-1H-indole-7-carboxamido)ethyl)benzoic acid] |
| < 100 | C[C@H](NC(=O)c1cc(-c2ccc(F)c(F)c2)cc2ccn(Cc3ccc4ccccc4c3)c12)c1ccc(C(=O)O)cc1 [Example 217, (S)-4-(1-(5-(3,4-difluorophenyl)-1-(naphthalen-2-ylmethyl)-1H-indole-7-carboxamido)ethyl)benzoic acid] |
| < 100 | C[C@H](NC(=O)c1cc(-c2cccnc2)cc2ccn(Cc3cccc(C(F)(F)F)c3)c12)c1ccc(C(=O)O)cc1 [Example 128, (S)-4-(1-(5-(pyridin-3-yl)-1-(3-(trifluoromethyl)benzyl)-1H-indole-7-carboxamido)ethyl)benzoic acid] |
| 100 to 1000 | O=C(O)c1ccc(C2(NC(=O)c3ccc(Nc4cc(F)cc(F)c4)c4ccn(Cc5ccc(C(F)(F)F)cc5)c34)CC2)cc1 [Example 66, 4-(1-(4-((3,5-difluorophenyl)amino)-1-(4-(trifluoromethyl)benzyl)-1H-indole-7-carboxamido)cyclopropyl)benzoic acid] |
| < 100 | CC(NC(=O)c1cc(-c2ccccc2)cc2cnn(Cc3cccc(C(F)(F)F)c3)c12)[C@H]1CC[C@H](C(=O)O)CC1 (mixture of isomers) [Example 222, (±) (1r,4r)-4-1-(5-phenyl-1-(3-(trifluoromethyl)benzyl)-1H-indazole-7-carboxamido)ethyl)cyclohexane-1-carboxylic acid] |
| < 100 | C[C@H](NC(=O)c1cc(-c2ccccc2)cc2ccn(Cc3cccc(Cl)c3)c12)c1ccc(C(=O)O)cc1 [Example 110, (S)-4-(1-(1-(3-chlorobenzyl)-5-phenyl-1H-indole-7-carboxamido)ethyl)benzoic acid] |
| < 100 | O=C(O)c1ccc(CNC(=O)c2cc(-c3cc(F)cc(F)c3)cc3ccn(Cc4ccc5ccccc5c4)c23)cc1 [Example 161, 4-((5-(3,5-difluorophenyl)-1-(naphthalen-2-ylmethyl)-1H-indole-7-carboxamido)methyl)benzoic acid] |
| < 100 | N#Cc1cccc(Nc2ccc(C(=O)NCc3ccc(C(=O)O)cc3)c3c2ccn3Cc2ccc(C(F)(F)F)cc2)c1 [Example 68, 4-((4-((3-cyanophenyl)amino)-1-(4-(trifluoromethyl)benzyl)-1H-indole-7-carboxamido)methyl)benzoic acid] |
| < 100 | O=C(O)c1ccc(CNC(=O)c2cc(-c3cc(F)cc(Cl)c3)cc3ccn(Cc4ccc(C(F)(F)F)cc4)c23)cc1 [Example 95, 4-((5-(3-chloro-5-fluorophenyl)-1-(4-(trifluoromethyl)benzyl)-1H-indole-7-carboxamido)methyl)benzoic acid] |
| < 100 | O=C(O)c1ccc(CNC(=O)c2cc(-c3cccnc3)cc3ccn(Cc4cccc(Cl)c4)c23)cc1 [Example 104, 4-((1-(3-chlorobenzyl)-5-(pyridin-3-yl)-1H-indole-7-carboxamido)methyl)benzoic acid] |
